Values joined by “and” are separate entries in the source; they are usually repeats but may differ in a detail not shown here. Identical values can stand only once. Inconclusive results and toxic doses are left out. Rule as the data show it: active = T/C of 150% or more; inactive = T/C below 125%.
System: L1210 leukemia ip in BDF1 mice, survival T/C
Assay: NCI In Vivo Anticancer Drug Screen. Data for tumor model L1210 Leukemia (intraperitoneal) in B6D2F1 (BDF1) mice
Settings: endpoint: mean survival time, higher = longer survival
How it was run: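 Transplantable tumor model; survival measured in treated vs vehicle control mice. Value = treated/control.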

[1] = dose: 50.0 mg/kg/injection, schedule: Q01DX001 (ip), vehicle: saline
[2] = dose: 100.0 mg/kg/injection, schedule: Q01DX001 (ip), vehicle: saline
[3] = dose: 200.0 mg/kg/injection, schedule: Q01DX001 (ip), vehicle: saline
[4] = dose: 400.0 mg/kg/injection, schedule: Q01DX001 (ip), vehicle: saline
[5] = dose: 200.0 mg/kg/injection, schedule: Q04DX003 (ip), vehicle: Klucel (hydroxypropylcellulose) (HPC)
[6] = dose: 25.0 mg/kg/injection, schedule: Q01DX009 (ip), vehicle: saline
[7] = dose: 50.0 mg/kg/injection, schedule: Q01DX009 (ip), vehicle: saline
[8] = dose: 12.5 mg/kg/injection, schedule: Q04DX003 (ip), vehicle: saline
[9] = dose: 25.0 mg/kg/injection, schedule: Q04DX003 (ip), vehicle: saline
[10] = dose: 50.0 mg/kg/injection, schedule: Q04DX003 (ip), vehicle: saline
[11] = dose: 12.5 mg/kg/injection, schedule: Q01DX009 (ip), vehicle: Klucel (hydroxypropylcellulose) (HPC)
[12] = dose: 25.0 mg/kg/injection, schedule: Q01DX009 (ip), vehicle: Klucel (hydroxypropylcellulose) (HPC)
[13] = dose: 50.0 mg/kg/injection, schedule: Q01DX009 (ip), vehicle: Klucel (hydroxypropylcellulose) (HPC)

Measured: T/C

Cc1c2ccccc2cc2cccc[n+]12
inactive: dose: 4.0 mg/kg/injection, schedule: Q01DX015 (ip), vehicle: saline 97 % of control | dose: 5.0 mg/kg/injection, schedule: Q01DX001 (ip), vehicle: saline 98 % of control | dose: 8.0 mg/kg/injection, schedule: Q01DX015 (ip), vehicle: saline 97 % of control | dose: 10.0 mg/kg/injection, schedule: Q01DX001 (ip), vehicle: saline 92 % of control | dose: 16.0 mg/kg/injection, schedule: Q01DX015 (ip), vehicle: saline 110 % of control | dose: 20.0 mg/kg/injection, schedule: Q01DX001 (ip), vehicle: saline 107 % of control | dose: 20.0 mg/kg/injection, schedule: Q04DX003 (ip), vehicle: saline 111 % of control | dose: 26.0 mg/kg/injection, schedule: Q04DX003 (ip), vehicle: saline 111 % of control and 118 % of control | dose: 32.0 mg/kg/injection, schedule: Q01DX015 (ip), vehicle: saline 95 % of control | dose: 40.0 mg/kg/injection, schedule: Q01DX001 (ip), vehicle: saline 112 % of control | dose: 40.0 mg/kg/injection, schedule: Q04DX003 (ip), vehicle: saline 116 % of control and 117 % of control | dose: 60.0 mg/kg/injection, schedule: Q04DX003 (ip), vehicle: saline 122 % of control

O=C(CSc1ccc(Cl)cc1)Nc1ccccc1
inactive: dose: 100.0 mg/kg/injection, schedule: Q04DX002 (ip), vehicle: gum acacia 92 % of control | dose: 200.0 mg/kg/injection, schedule: Q04DX002 (ip), vehicle: gum acacia 87 % of control | dose: 400.0 mg/kg/injection, schedule: Q04DX002 (ip), vehicle: gum acacia 89 % of control

Cn1c(C2=CC(=O)c3ccccc3C2=O)c(C2=CC(=O)c3ccccc3C2=O)c2ccccc21
inactive: [1] 102 % of control | [2] 98 % of control | [3] 104 % of control | [4] 102 % of control

CSc1nn2c(SC)nnc2s1
inactive: dose: 50.0 mg/kg/injection, schedule: Q01DX001 (ip), vehicle: carboxymethylcellulose (CMC) 104 % of control | dose: 100.0 mg/kg/injection, schedule: Q01DX001 (ip), vehicle: carboxymethylcellulose (CMC) 101 % of control | dose: 200.0 mg/kg/injection, schedule: Q01DX001 (ip), vehicle: carboxymethylcellulose (CMC) 120 % of control

CCCCCCCCCCCCCCCCC(CCCCCCCCCCCCCCCC)C1CCCCC1
inactive: dose: 100.0 mg/kg/injection, schedule: Q01DX001 (ip), vehicle: saline with Tween-80 94 % of control | dose: 200.0 mg/kg/injection, schedule: Q01DX001 (ip), vehicle: saline with Tween-80 94 % of control | dose: 400.0 mg/kg/injection, schedule: Q01DX001 (ip), vehicle: saline with Tween-80 90 % of control

CCCCOC(=O)c1ccc2c(ccc[n+]2C)c1
inactive: dose: 75.0 mg/kg/injection, schedule: Q01DX001 (ip), vehicle: saline 95 % of control | dose: 75.0 mg/kg/injection, schedule: Q04DX003 (ip), vehicle: saline 112 % of control | dose: 150.0 mg/kg/injection, schedule: Q01DX001 (ip), vehicle: saline 101 % of control | dose: 150.0 mg/kg/injection, schedule: Q04DX003 (ip), vehicle: saline 105 % of control | dose: 300.0 mg/kg/injection, schedule: Q01DX001 (ip), vehicle: saline 100 % of control | dose: 300.0 mg/kg/injection, schedule: Q04DX003 (ip), vehicle: saline 96 % of control

COc1ccc(CCCC(C)(C)O)cc1
inactive: dose: 50.0 mg/kg/injection, schedule: Q01DX009 (ip), vehicle: saline with Tween-80 94 % of control | dose: 100.0 mg/kg/injection, schedule: Q01DX009 (ip), vehicle: saline with Tween-80 97 % of control

CC(=O)/C(=C/c1ccccc1)c1ccccc1
inactive: dose: 75.0 mg/kg/injection, schedule: Q01DX009 (ip), vehicle: Klucel (hydroxypropylcellulose) (HPC) 95 % of control | dose: 75.0 mg/kg/injection, schedule: Q04DX003 (ip), vehicle: Klucel (hydroxypropylcellulose) (HPC) 104 % of control | dose: 150.0 mg/kg/injection, schedule: Q01DX009 (ip), vehicle: Klucel (hydroxypropylcellulose) (HPC) 106 % of control | dose: 150.0 mg/kg/injection, schedule: Q04DX003 (ip), vehicle: Klucel (hydroxypropylcellulose) (HPC) 100 % of control | dose: 300.0 mg/kg/injection, schedule: Q01DX009 (ip), vehicle: Klucel (hydroxypropylcellulose) (HPC) 102 % of control | dose: 300.0 mg/kg/injection, schedule: Q04DX003 (ip), vehicle: Klucel (hydroxypropylcellulose) (HPC) 104 % of control

O=C(CC(=O)c1ccccc1)Nc1ccc([N+](=O)[O-])cn1
inactive: dose: 50.0 mg/kg/injection, schedule: Q04DX003 (ip), vehicle: Klucel (hydroxypropylcellulose) (HPC) 91 % of control | dose: 100.0 mg/kg/injection, schedule: Q01DX001 (ip), vehicle: Klucel (hydroxypropylcellulose) (HPC) 103 % of control | dose: 200.0 mg/kg/injection, schedule: Q01DX001 (ip), vehicle: Klucel (hydroxypropylcellulose) (HPC) 105 % of control | [5] 93 % of control | dose: 400.0 mg/kg/injection, schedule: Q01DX001 (ip), vehicle: Klucel (hydroxypropylcellulose) (HPC) 98 % of control

Cc1ncc(CO)c(C)c1O
inactive: dose: 0.03 mg/kg/injection, schedule: Q02DX010 (ip), vehicle: saline 118 % of control | dose: 0.04 mg/kg/injection, schedule: Q02DX010 (ip), vehicle: saline 118 % of control | dose: 0.07 mg/kg/injection, schedule: Q02DX010 (ip), vehicle: saline 123 % of control | dose: 0.15 mg/kg/injection, schedule: Q02DX010 (ip), vehicle: saline 86 % of control | dose: 0.23 mg/kg/injection, schedule: Q02DX010 (ip), vehicle: saline 86 % of control | dose: 12.5 mg/kg/injection, schedule: Q01DX009 (ip), vehicle: saline 98 % of control | dose: 22.81 mg/kg/injection, schedule: Q01DX Z (ip), vehicle: carboxymethylcellulose (CMC) 102 % of control | [6] 95 % of control | dose: 45.62 mg/kg/injection, schedule: Q01DX Z (ip), vehicle: carboxymethylcellulose (CMC) 101 % of control | [7] 103 % of control | dose: 91.25 mg/kg/injection, schedule: Q01DX Z (ip), vehicle: carboxymethylcellulose (CMC) 105 % of control | dose: 100.0 mg/kg/injection, schedule: Q01DX009 (ip), vehicle: saline 102 % of control | dose: 182.3 mg/kg/injection, schedule: Q01DX Z (ip), vehicle: carboxymethylcellulose (CMC) 110 % of control | dose: 200.0 mg/kg/injection, schedule: Q01DX009 (ip), vehicle: saline 108 % of control

CC(=O)N1CCC(CC[P+](c2ccccc2)(c2ccccc2)c2ccccc2)CC1
inactive: [8] 101 % of control | [9] 96 % of control | [10] 93 % of control

O=N[O-].O=N[O-].[NH2-].[NH2-].[Pt+2]
inactive: [11] 103 % of control | [12] 106 % of control | [13] 106 % of control

CN(C)Cc1cccc(C(F)(F)F)c1C(O)c1ccccc1 (stereo not given)
inactive: [1] 100 % of control | [2] 94 % of control | [3] 103 % of control | [4] 100 % of control

Cc1c(O)cccc1F
inactive: dose: 25.0 mg/kg/injection, schedule: Q04DX002 (ip), vehicle: Klucel (hydroxypropylcellulose) (HPC) 98 % of control | dose: 50.0 mg/kg/injection, schedule: Q04DX002 (ip), vehicle: Klucel (hydroxypropylcellulose) (HPC) 102 % of control | dose: 100.0 mg/kg/injection, schedule: Q04DX002 (ip), vehicle: Klucel (hydroxypropylcellulose) (HPC) 111 % of control and 120 % of control

CCCCCNC(C)C(=O)c1ccccc1 (stereo not given)
inactive: [8] 87 % of control | [6] 92 % of control | [9] 94 % of control | [7] 100 % of control | [10] 94 % of control | dose: 100.0 mg/kg/injection, schedule: Q04DX003 (ip), vehicle: saline 97 % of control

CCCCOc1ccc(C=Nc2ccc(C)cc2)cc1
inactive: [11] 110 % of control | [12] 109 % of control | [13] 103 % of control | dose: 100.0 mg/kg/injection, schedule: Q01DX009 (ip), vehicle: Klucel (hydroxypropylcellulose) (HPC) 93 % of control | dose: 100.0 mg/kg/injection, schedule: Q04DX003 (ip), vehicle: Klucel (hydroxypropylcellulose) (HPC) 97 % of control | [5] 95 % of control | dose: 400.0 mg/kg/injection, schedule: Q01DX009 (ip), vehicle: Klucel (hydroxypropylcellulose) (HPC) 92 % of control | dose: 400.0 mg/kg/injection, schedule: Q04DX003 (ip), vehicle: Klucel (hydroxypropylcellulose) (HPC) 107 % of control
